Entries after “also recorded” stand apart in the source; their conditions may differ.
Legend:
[1] = tested on: Mouse NIT-1 insulinoma β-cells; assay: Apoptosis ELISA (fragmentation of histone-associated DNA) in NIT-1 cells; format: cell-based; settings: for Effect on apoptosis in the presence of IGFBP-3: NIT-1, 1 μg/ml IGFBP-3 plus SHLP; for Effect of SHLP on apoptosis after PD98059 pre-treatment: NIT-1, 25 μM PD98059 (ERK1/2 inhibitor)
Procedure: SHLPs are anti-apoptotic in 22RV1 prostate cancer cells and NIT-1 β-cells. […] Mouse NIT-1 insulinoma β-cells and 22RV1 human prostate cancer cells were serum starved for 24 h, followed by 24 h incubation with 100 nM scrambled control peptide, HN or SHLPs. Apoptosis was assessed and quantified by ELISA for fragmentation of histone-associated DNA.
ERK activation is necessary for SHLP-induced inhibition of apoptosis in NIT-1 and 22RV1 cells. To determine the significance of ERK activation for apoptosis inhibition by SHLPs 2 and 3, PD98059 (PD), a specific chemical inhibitor of ERK1/2, was utilized. 22RV1 and NIT-1 cells were serum starved for 24 h in the presence or absence of 25 μM PD or 1 μM wortmannin (PI3-kinase inhibitor; negative control), followed by 24 h incubation with […] scrambled control peptide, SHLP2 or SHLP3. Apoptosis was then assessed by ELISA for fragmentation of histone-associated DNA.
Role of IGFBP-3 in effects of SHLPs on cell survival. Since IGFBP-3 is an important regulator of HN action, IGFBP-3 was tested for a possible role in regulating the anti- or pro-apoptotic actions of SHLPs. NIT-1 cells were incubated with 1 μg/ml IGFBP-3±0, 10, 100 or 1000 nM SHLP2 or 3 for 24 h. Apoptosis induction was assessed by ELISA for fragmentation of histone-associated DNA.
Co-incubation of SHLPs. To evaluate therapeutic uses involving co-treatment with SHLPs, the effect of HN±SHLPs on apoptosis was tested in both 22RV1 and NIT-1 cells. Cells were incubated in SF media for 24 h followed by 24 h with 100 nM HN, SHLP or peptide combination. Apoptosis was assessed by ELISA for fragmentation of histone-associated DNA. Cells were treated with all possible double peptide combinations. Although many peptide combinations had no additive or combined effects compared with the actions of the peptides individually, co-treatment with certain combinations led to unexpected functional changes (FIG. 11). […] Thus, specific SHLPs may either act on complementary pathways, or interact with each other, leading to change of function of one or both peptides. When the same experiments were repeated in NIT-1 cells, similar, but different, change of function effects were observed (FIG. 11B).

[2] = tested on: 22RV1 human prostate cancer cells; assay: Cell proliferation (cell number by MTT/MTS cleavage) in 22RV1 cells; format: cell-based; settings: 22RV1, 100 nM peptide, 72 h
Procedure: (§1) SHLPs exert distinct effects on cell proliferation. Whether SHLPs have the capacity to influence cell proliferation, in addition to their intrinsic effects on apoptosis induction, was also investigated. Mouse NIT-1 insulinoma β-cells and 22RV1 human prostate cancer cells were serum starved for 24 h, followed by 72 h incubation with 100 nM scrambled control peptide, HN or SHLPs. Cell number, as a measure of cell proliferation, was assessed by cleavage of MTT substrate.
Pro-apoptotic effect on human prostate cancer cells in vitro. To assess the ability of SHLP6 to induce apoptosis in human prostate cancer cells, PC-3, 22RV1 or DU145 cells were incubated in serum free (SF) media for 24 h followed by 24 h incubation with 1 μM scrambled (control) peptide or SHLP6. Apoptosis was assessed by ELISA for fragmentation of histone-associated DNA. In each cell line tested, SHLP6 induced apoptosis by at least 2-fold (FIG. 2), confirming highly significant physiological effects of this novel peptide. To determine whether the effects of SHLP6 were specific to induction of apoptosis, or if it also elicited growth-inhibitory effects, PC-3, DU-145, 22RV1, LAPC4 and LNCaP cells were incubated in SF media for 24 h followed by 72 h incubation with 1 μM SHLP6. Cell number, as a measure of cell proliferation, was assessed by cleavage of MTS substrate.

[3] = tested on: Mouse NIT-1 insulinoma β-cells; assay: Cell proliferation (cell number by MTT/MTS cleavage) in NIT-1 cells; format: cell-based; settings: NIT-1, 100 nM peptide, 72 h
Procedure: as §1

[4] = tested on: murine 3T3-L1 fibroblasts; assay: 3T3-L1 adipocyte differentiation (oil red-O staining); format: cell-based; settings: 100 nM peptide with 10 nM insulin, 7 days
Procedure: SHLPs 2 and 3 Stimulate Adipocyte Differentiation of 3T3-L1 Cells in vitro. […] We next assessed the ability of SHLP2, 3 and 6 to modulate the differentiation of 3T3-L1 adipocytes. Differentiation was induced in murine 3T3-L1 fibroblasts by incubation in 1 μM dexamethasone, 100 nM insulin, and 500 μM lisobutylmethyxanthine for 2 days, followed by incubation with 10 nM insulin in the presence of 100 nM scrambled peptide (control), SHLP2, SHLP3 or SHLP6 for 7 days. Differentiation was assessed by oil red-0 staining as a measure of oil droplet formation.

ERK = ERK phosphorylation in NIT-1 cells (immunoblotting, ELISA); format: cell-based, mouse; settings: NIT-1, 100 nM
Procedure: (§2) In addition to 22RV1, the effects of SHLPs on ERK and STAT3 phosphorylation were also studied in NIT-1 pancreatic β-cells. […] Indeed, the activation profile caused by SHLP3 in NIT-1 is remarkably similar to that stimulated by SHLP2 in 22RV1. When ERK activation was quantified by ELISA, a 6-fold and 9-fold activation was observed after 2 and 24 h, respectively, by SHLP2.

STAT3 = STAT3 phosphorylation in NIT-1 cells (immunoblotting); format: cell-based, mouse; settings: NIT-1, 100 nM
Procedure: as §2

[5] = tested on: Mouse primary cortical neurons; assay: Protection of primary cortical neurons from Aβ-induced cell death (Calcein-AM); format: cell-based; settings: 25 μM Aβ1-43, 100 nM peptide, 72 h
Procedure: SHLPs protect neurons from Aβ-induced apoptosis. When it was first discovered, HN was described as a potent neural survival factor with clinical implications as a therapeutic agent against neurodegenerative diseases such as Alzheimer's Disease. Since many of the SHLPs appear to be functionally related to HN, SHLPs were tested as potential neuroprotective factors. Mouse primary cortical neurons were incubated with 25 μM Aβ1-43 in the presence or absence of 100 nM SHLP2 or 3, HNG (positive control) or 1 nM colivelin (positive control). After 72 h, neuronal viability was assessed by Calcein-AM staining followed by fluorescence microscopy (FIG. 13).

S. cerevisiae = assay: Yeast heat shock survival; format: cell-based; settings: 10 μM peptide, 90° heat shock
Procedure: SHLPs enhance stress resistance in yeast. The ability of SHLPs to enhance stress resistance in yeast was tested. The ability of yeast to survive heat shock after being treated with different peptides is a commonly used method to test the ability of peptides to enhance yeast survival.

[6] = NIT-1, 0, 10, 100 or 1000 nM SHLP, 24 h

Sequence | Apoptosis (fragmentation of histone-associated DNA) [1, 6] | Effect on apoptosis in the presence of IGFBP-3 ([1]; 24 h) | Effect of SHLP on apoptosis after PD98059 pre-treatment [1] | Cell number as a measure of cell proliferation [2] | Cell number as a measure of cell proliferation [3] | Adipocyte differentiation (oil red-O staining) [4] | ERK phosphorylation profile (immunoblotting) (ERK) | ERK activation (ELISA) (ERK; after 2 h) | ERK activation (ELISA) (ERK; after 24 h) | STAT3 activation/phosphorylation (immunoblotting) (STAT3) | Neuronal viability against Aβ-induced cell death [5] | Yeast survival of heat shock (S. cerevisiae) | SHLP-induced cell survival after wortmannin pre-treatment ([1]; NIT-1, 1 μM wortmannin (PI3-kinase inhibitor)) | Apoptosis (fragmentation of histone-associated DNA) ([1]; NIT-1, serum starved 24 h, then 24 h with 100 nM peptide)
MLGYNFSSFPCGTISIAPGFNFYRLYFIWVNGLAKVVW [SHLP3, small humanin-like peptide, mtDNA 1707-1821] | reduced levels of apoptosis | inhibit IGFBP-3-induced apoptosis | abrogated | much greater effect | much greater effect | strikingly induced adipocyte differentiation; also recorded: stimulate 3T3-L1 adipocyte differentiation | more delayed response | no detectable increase | 15 fold | only slightly stimulate | protect the neurons from the cell death; also recorded: function as neuro-protective factors | allowed the yeast to withstand 90° heat shock; also recorded: enhance yeast survival against heat shock |  | 
MGVKFFTLSTRFFPSVQRAVPLWTNS [SHLP2, small humanin-like peptide, mtDNA 2092-2170] | dose dependent inhibition of apoptosis | unaffected by the presence of IGFBP-3 | abrogated | much greater effect | much greater effect | strikingly induced adipocyte differentiation; also recorded: stimulate 3T3-L1 adipocyte differentiation | detected within 30 min | 6 fold | 9 fold | temporally similar to the timing of ERK activation | protect the neurons from the cell death; also recorded: function as neuro-protective factors | allowed the yeast to withstand 90° heat shock; also recorded: enhance yeast survival against heat shock | not in NIT-1 cells | significantly inhibited

From US8637470B2, “Small humanin-like peptides” (The Regents of the University of California, priority 2008, dated 2014)
